# Laboratory results taken from patent US20250205195A1, “BENZYLOXY-BENZYLAMINYL AMINO ACID DERIVATIVE FOR ADJUSTING TSLP/TSLPR SIGNAL TRANSMISSION” (AMTIXBIO CO., LTD., priority 2021, published 2025).
# How the values were obtained:
# [1] = system: DNFB-induced atopic dermatitis mice; assay: DNFB-induced atopic dermatitis mouse model, itch scratching test; type: in vivo, ICR mice; conditions: 1˜10 mg/kg, ip, po or topical, daily for one week, 30 min recording, vs control group
# Procedure: ICR mice (Supplier: Koatech, Gyeonggi, South Korea, Male, 9 weeks old) were used. After acclimatization to the environment for one week, the mice were divided into treatment and control groups, and then hair was removed from the area (dorsal area) where the drug was applied on day 0, 0.5% DNFB (50 μL) diluted in 99% acetone, was applied to the dorsal area. Subsequently, on days 5, 8, 10 and 14, additional applications of 0.2% DNFB (20 μL) were applied to induce atopic dermatitis. After 7 days of DNFB treatment, once skin lesions were confirmed in all mice, compound 27 of the present invention was administered daily for one week via intraperitoneal (ip), oral (po), or topical (dermal) routes.
# For the groups treated with the compound 27 of the present invention (1˜10 mg/kg) and the control group, mice were separated on days 5, 8, 11 and 15, acclimatized for 1 hour, and their scratching behavior patterns were recorded and analyzed for 30 minutes.
# p-STAT5 = assay: TSLP-induced p-STAT5 in bone marrow-derived dendritic cells (BMDCs), Western blot; type: cell-based, mouse
# Procedure: C57BL/6J mice (JA BIO, DBL-0011, male, 6-12 weeks old) were euthanized, and femurs and tibias were separated after cervical dislocation and then were stored in PBS (HyClone, Cat No. SH30028.02). After removing tissues as much as possible from femurs and tibias, both ends of the bones were cut vertically, and bone marrow was quickly collected with a 5 mL syringe (Korea Vaccine, 5 cc syringe 22 g). After centrifugation at 1800 rpm for 3 minutes, the supernatant was discarded, 10 mL PBS was added to resuspend the cells, and the mixture was filtered through a 100 µm cell strainer. […]
# The obtained BMDCs were pre-treated with compound 27, Jak1 inhibitor (Filgotinib, Selleck, Cat No. JS7605), or Jak2 inhibitor (SD-1029, Sigma, Cat No. 573098) 30 minutes or 1 hour prior to treatment. […] After quantifying the protein using the BCA protein assay kit (Thermo, Cat No. 23225), 5×SDS-PAGE loading buffer (Biosesang, Cat No. SF2002-110-00) was added, boiled for 5 minutes at 103° C., and stored at −20° C. […]
# BR1706516)] for 2 hours at room temperature. After washing with TBS-T, the membrane was incubated with ECL solution (Thermo, Cat No. 32209), and protein bands were detected using the iBright imaging system (Invitrogen, Model No. FL1500). Each band intensity was measured using ImageJ software (version 1.38; National Institutes of Health), and the pSTAT5/STAT ratio was calculated. […]
# interleukin-6 (IL-6) = assay: TNF-α/IFN-induced interleukin-6 in HaCaT keratinocytes (ELISA); type: cell-based, human; conditions: HaCaT cells, 0, 1, 2, 4 and 8 µg/mL, TNF-α and IFN 50 ng/mL each, 24 h
# Procedure: Furthermore, human keratinocyte HaCaT cells (obtained from the Korean Cell Line Bank) were seeded at an initial density of 2×10^5 cells/well in a 12-well plate and cultured at 37° C. for 16 to 24 hours. The compound 27 of the present invention was then added to the HaCaT cell culture medium at final concentrations of 0, 1, 2, 4, and 8 µg/mL and the cells were cultured at 37° C. for 1 hour. Subsequently, to induce interleukin-6, the culture medium was treated with TNF-α (Sigma-Aldrich, USA) and […] (Sigma-Aldrich, USA) to final concentrations of 50 ng/mL each, and the cells were cultured for an additional 24 hours at 37° C. Next, the culture supernatant was collected, and the amount of induced interleukin-6 from HaCaT cells was determined using an ELISA kit (LABIS KOMA, South Korea) according to the manufacturer's instructions.
# Human keratinocyte HaCaT cells (obtained from the Korean Cell Line Bank) were seeded in a 12-well plate at an initial density of 2×10^5 cells/well and cultured at 37° C. for 16 to 24 hours. […] The culture supernatant was collected, and the amount of induced interleukin-6 from HaCaT cells was determined using an ELISA kit (LABIS KOMA, South Korea) according to the manufacturer's instructions.
smiles,measurement,setting,value
"CCC(NC)C(=O)NCc1ccc(OCc2ccc(C(F)(F)F)cc2)cc1 (racemic) [Compound 27, (R)/(S)-2-(methylamino)-N-(4-((4-trifluoromethyl)benzyl)oxy)benzyl)butanamide]",scratching frequency,[1],significantly decreased
same,reduction in p-STAT5,"p-STAT5; 2 pM, compared to the TSLP-treated group",51%
same,p-STAT5 (pSTAT5/STAT ratio),"p-STAT5; BMDCs, TSLP treatment",significantly reduced
same,amount of induced interleukin-6,interleukin-6 (IL-6),decreased
